The values that follow come from patent US20260199481A1, “PROTEIN DEGRADATION TARGETING CHIMERA COMPOUND, COMPOSITION THEREOF, AND USE THEREOF” (TSINGHUA UNIVERSITY, priority 2022, published 2026).

The test system of one experiment is MCF-7 cells. Nature of the experiment: In vitro anti-tumor effect, CellTiter 96 viability assay. The format is cell-based. To be noted: Homo sapiens, MCF7, light or radiation study. The procedure: Experimental Procedure: MCF-7 cells in the logarithmic growth phase were used for the experiment. The cells were seeded at 5000 cells per well in 96-well plates and incubated for 24 hours at 37° C. The cells were treated with Example compounds A1-D3 for 3 h. Subsequently, the irradiated group was irradiated with 10-30 Gy of X-rays, and the cells were continued to be incubated until 72 h after completion of irradiation. At the end of drug treatment, 20 μL of CellTiter 96° solution was added to each well. The well plates were incubated in an incubator for 2-4 hours, and then the absorbance was measured using a plate reader. Data were analyzed with GraphPad Prism software to obtain the IC50 values of each test compound.

The target of another experiment is T1, BRD4 (Homo sapiens, UniProt O60885).
T1 construct: endogenous in cells; host or cells: MCF-7
The experiment can be described thus: Protein degradation activity, Western blotting of BRD4 in MCF-7 cells. Format: cell-based. To be noted: FIG. 3. The procedure:
Cell treatment: MCF-7 cells in the logarithmic growth phase were taken for the experiment. Cells were inoculated in six-well plates at a density of 5.0×10^5 cells/per well and incubated at 37° C. for 24 hours. […]
Whole cell protein extraction: After completion of drug treatment, the culture medium was discarded, and the cells were washed 3 times with pre-cooled PBS. Cells were scraped off using a cell scraper, and the resulting solution was carefully aspirated and centrifuged at 300 g for 5 min at 4° C. to obtain cells, which were washed with PBS, resuspended, and centrifuged under the same conditions.
Cell lysis: Cells were washed with pre-cooled PBS and lysed in pre-cooled lysis buffer (containing 1% protease and phosphatase inhibitor) for 30 min, and cells were vigorously vortexed several times during lysis. After lysis was completed, the cells were centrifuged at 11,000 g for 15 min at 4° C., and the supernatant was collected as whole cell protein.
Protein denaturation: protein concentration was measured by Bradford assay. Proteins were diluted using 4× Protein Sampling Buffer. Subsequently, the proteins were denatured by heating in a metal bath at 100° C. for 15 min.
Protein Immunoblotting Assay (Western Blotting, WB) was Performed to Quantify BRD4 Protein:
1) Protein electrophoresis: proteins were separated in 4-12% or 4-20% Bis-Tris SDS-PAGE gels. The appropriate volume of the above cell whole protein extract was added to the lanes of the above SDS-PAGE gel. Turn on the power and electrophoresis at 120 V for 15 minutes, then adjust the voltage to 180 V and continue electrophoresis until the loading buffer reaches the lowest end of the gel.
(2) Membrane transfer: After electrophoresis, remove the gel, cut a PVDF membrane […] of the appropriate size and activate the membrane with anhydrous methanol, and install the membrane transfer device in the following order from the negative pole to the positive pole: sponge cushion, gel, PVDF membrane, sponge cushion. After installing the membrane transfer device, place it in the corresponding membrane transfer tank, check the liquid level of the solution required for membrane transfer, turn on the power, and complete the membrane transfer after 3 transfer cycles.
3) Blocking: Place the membrane in QuickBlock™ Western Blocking Buffer and shake it for 20 minutes at room temperature.
4) Primary antibody incubation: After the blocking, discard the blocking solution, add the primary antibody diluted to the appropriate concentration, and gently shake the membrane overnight at 4° C. After completing the incubation, wash the membrane 4 times with 1×TBST for 5 min/time.
(5) Secondary antibody incubation: Add secondary antibody diluted to the appropriate concentration and gently shake the PVDF membrane for 1 hour at room temperature. After incubation, the membrane was washed 4 times with 1×TBST for 5 min/time.
6) Developing: Prepare the ECL developing solution before developing. Lay the PVDF membrane flat on a clean plastic wrap, add the developer solution to the membrane, and let it stand for 1 minute away from light. Subsequently, the PVDF membrane was imaged on a gel system.

For another experiment, the system named is MCF-7 cell line. The experiment can be described thus: In vivo anti-tumor activity, MCF-7 tumor model. Also on record: species or system BALB/c nude mice. The conditions noted are these: for tumor growth (tumor volume): 10 mg/kg subcutaneous injection. The procedure:
To investigate the in vivo activation and antitumor activity of the PROTAC compound AS2 and X-ray-responsive PROTAC compound A1, we performed in vivo antitumor activity studies. The MCF-7 cell line was selected, and experiments were performed in BALB/c nude mice. Experimental animals: BALB/c nude mice (female; 6-8 weeks old) were all purchased from Beijing Vital River Laboratory Animal Technology Co., Ltd and housed in pathogen-free conditions with standard temperature and humidity at the Laboratory Animal Resources Center of Tsinghua University. All animal experiments were approved by the Animal Ethics Committee of Tsinghua University. Tumor model establishment: MCF-7 cells in logarithmic growth phase were taken, and 0.25% trypsin was added to digest the cells after washing the cells for 3 times with pre-cooled PBS buffer. The digested cells were centrifuged at 1000 rpm/min for 5 min, the precipitate was discarded, and the cells were resuspended with pre-cooled PBS and carefully blown to make a single-cell solution. After the cells were counted by a counter, the cell density was adjusted to 1×10^7 cells/mL, and 10 mL was taken into a centrifuge tube and stored on ice. Before inoculation of cancer cells, nude mice were gently wiped under the skin of the right axilla with a paper towel sprayed with 75% alcohol. A 1 mL disposable syringe was used to aspirate 200 μL of cell suspension, and the air in the needle was removed, and a single subcutaneous injection was carried out by puncturing about 1 cm forward from the needle inlet site. The needle was withdrawn slowly to avoid fluid leakage. Observe the tumor growth status daily. Drug administration: When the tumor volume reached 120 mm^3, the tumor-bearing mice were randomly grouped. Six groups were set up, namely PBS, PROTAC drug AS2, PROTAC prodrug A1, PBS+X-ray irradiation, PROTAC drug AS2+X-ray irradiation, and PROTAC prodrug A1+X-ray irradiation. Each drug was dispersed in the following solution: 1.25% DMSO+20% PEG+5% Tween 80+73.75% dd H2O; administered dose: 10 mg/kg; subcutaneous injection. X-ray irradiation was performed 3 hours after drug injection. The irradiation dose was 5 Gy. Tumor size and body weight were monitored every other day. Tumor volume was calculated using the formula: tumor volume=length×width^2/2. After 16 days of monitoring, mice in each group were euthanized, and tumors and major organs were collected.

Where [1] appears, read: compound 3 h, then X-rays 10 Gy or 30 Gy, 72 h after irradiation, read-out: Irradiation with 10 Gy or 30 Gy IC50.
The mark [2] stands for this setting: no irradiation, 72 h incubation, read-out: Radiation-free IC50.

Where two headings read alike, the source gives them in different places.

Turning to `COc1cc(CC(CCCCNc2cccc3c2C(=O)N(C2CCC(=O)NC2=O)C3=O)C(=O)C[C@@H]2N=C(c3ccc(Cl)cc3)c3c(sc(C)c3C)-n3c(C)nnc32)cc(OC)c1` (stereo partly drawn) [Compound B3], the figures for the IC50 in the experiment on MCF-7 cells (setting [1]) and in the experiment on MCF-7 cells (setting [2]) were 338 nM and 2760 nM, respectively.
For `COc1cc(COC(=O)O[C@@H]2C[C@@H](C(=O)N[C@@H](C)c3ccc(-c4scnc4C)cc3)N(C(=O)[C@H](NC(=O)COCCOCCOCCNC(=O)C[C@@H]3N=C(c4ccc(Cl)cc4)c4c(sc(C)c4C)-n4c(C)nnc43)C(C)(C)C)C2)cc(OC)c1` [Compound A2] the same measures were 103 nM and 1110 nM.
As for `COc1cc(COC(=O)O[C@@H]2C[C@@H](C(=O)N[C@@H](C)c3ccc(-c4scnc4C)cc3)N(C(=O)[C@H](NC(=O)CCOCc3cn(CCOCCNC(=O)C[C@@H]4N=C(c5ccc(Cl)cc5)c5c(sc(C)c5C)-n5c(C)nnc54)nn3)C(C)(C)C)C2)cc(OC)c1` [Compound D2], the IC50 with MCF-7 cells (setting [1]) is 127 nM; in the experiment with MCF-7 cells (setting [2]), 1010 nM.
Turning to `COc1cc(COC(=O)O[C@@H]2C[C@@H](C(=O)N[C@@H](C)c3ccc(-c4scnc4C)cc3)N(C(=O)[C@H](NC(=O)COCCCOCCNC(=O)C[C@@H]3N=C(c4ccc(Cl)cc4)c4c(sc(C)c4C)-n4c(C)nnc43)C(C)(C)C)C2)cc(OC)c1` [Compound B2], the IC50 in the experiment with MCF-7 cells (setting [1]) turned out to be 119 nM; in the experiment on MCF-7 cells (setting [2]), 1060 nM.
In the same order, the values of `COc1cc(COC(=O)O[C@@H]2C[C@@H](C(=O)N[C@@H](C)c3ccc(-c4scnc4C)cc3)N(C(=O)[C@H](NC(=O)CCCCCCCCCCNC(=O)C[C@@H]3N=C(c4ccc(Cl)cc4)c4c(sc(C)c4C)-n4c(C)nnc43)C(C)(C)C)C2)cc(OC)c1` [Compound C2] are 107 nM and 984 nM.
For `Cc1ncsc1-c1ccc([C@H](C)NC(=O)[C@@H]2C[C@@H](OC(=O)OCc3c(F)c(F)c(N=[N+]=[N-])c(F)c3F)CN2C(=O)[C@H](NC(=O)COCCCOCCNC(=O)C[C@@H]2N=C(c3ccc(Cl)cc3)c3c(sc(C)c3C)-n3c(C)nnc32)C(C)(C)C)cc1` [Compound B1] the same measures were 119 nM and 1080 nM.
On to `Cc1ncsc1-c1ccc([C@H](C)NC(=O)[C@@H]2C[C@@H](OC(=O)OCc3c(F)c(F)c(N=[N+]=[N-])c(F)c3F)CN2C(=O)[C@H](NC(=O)CCCCCCCCCCNC(=O)C[C@@H]2N=C(c3ccc(Cl)cc3)c3c(sc(C)c3C)-n3c(C)nnc32)C(C)(C)C)cc1` [Compound C1], for which the IC50 in the experiment on MCF-7 cells (setting [1]) came to 146 nM; in the experiment with MCF-7 cells (setting [2]) it was 964 nM.
For `COc1cc(COC(=O)N2C(=O)CCC(N3C(=O)c4cccc(NCCCCNC(=O)C[C@@H]5N=C(c6ccc(Cl)cc6)c6c(sc(C)c6C)-n6c(C)nnc65)c4C3=O)C2=O)cc(OC)c1` (stereo partly drawn) [Compound D3] the same measures were 104 nM and 1960 nM.
In the same order, the values of `Cc1sc2c(c1C)C(c1ccc(Cl)cc1)=N[C@@H](CC(=O)C(CCCCNc1cccc3c1C(=O)N(C1CCC(=O)NC1=O)C3=O)Cc1c(F)c(F)c(F)c(F)c1F)c1nnc(C)n1-2` (stereo partly drawn) [Compound A3] are 273 nM and 2540 nM.
The compound `Cc1ncsc1-c1ccc([C@H](C)NC(=O)[C@@H]2C[C@@H](O)CN2C(=O)[C@H](NC(=O)COCCOCCOCCNC(=O)C[C@@H]2N=C(c3ccc(Cl)cc3)c3c(sc(C)c3C)-n3c(C)nnc32)C(C)(C)C)cc1` [AS2] displayed a DC50 on BRD4 (WB) of 31.2 nM. In addition, the “degradation activity on BRD4” value at BRD4 (tested concentrations 0-300 nM) is reported as “effectively degraded BRD4”. Besides, the “tumor growth (tumor volume)” value is “tumor growth was significantly inhibited” in the experiment on MCF-7 cell line (X-ray 5 Gy 3 hours after drug injection) and “poor antitumor effect” with MCF-7 cell line (no irradiation, compared with PBS group). Moreover, the “tumor weight at day 16” value with MCF-7 cell line (10 mg/kg subcutaneous, two administrations with radiation therapy, FIG. 9) is on record as “essentially no tumor growth”.
In the case of `Cc1sc2c(c1C)C(c1ccc(Cl)cc1)=N[C@@H](CC(=O)NCCCCNc1cccc3c1C(=O)N(C1CCC(=O)N(C(=O)OCc4c(F)c(F)c(N)c(F)c4F)C1=O)C3=O)c1nnc(C)n1-2` (stereo partly drawn) [Compound C3], the values for the IC50 in the experiment with MCF-7 cells (setting [1]) and with MCF-7 cells (setting [2]) were 970 nM and 1860 nM, respectively.
Regarding `Cc1ncsc1-c1ccc([C@H](C)NC(=O)[C@@H]2C[C@@H](OC(=O)OCc3c(F)c(F)c(N=[N+]=[N-])c(F)c3F)CN2C(=O)[C@H](NC(=O)CCOCc2cn(CCOCCNC(=O)C[C@@H]3N=C(c4ccc(Cl)cc4)c4c(sc(C)c4C)-n4c(C)nnc43)nn2)C(C)(C)C)cc1` [Compound D1], the figures for the IC50 in the experiment on MCF-7 cells (setting [1]) and in the experiment with MCF-7 cells (setting [2]) were 152 nM and 1220 nM, respectively.

The IC50 is the point on the concentration scale where inhibition reaches its midpoint. By DC50 is commonly meant the concentration at which degradation of the target reaches its halfway point. Low readings indicate degradation at low concentration, high ones degradation only at high concentration.
